Results from patent US5503776A, “N-acylcarnosines and their use as antioxidants” (National Food Research Institute Ministry of Agriculture, …, priority 1991, dated 1996).
Peptide text beside a SMILES is read from it. * marks the point of attachment. Oleoyl = CCCCCCCC/C=C\CCCCCCCC(=O)*

How the values were obtained:
[1] = Repression of the radical chain autoxidation reaction of methyl linoleate (HPLC of methyl linoleate hydroperoxide); conditions: hexane/isopropyl alcohol (1:1 v/v), 100 mM methyl linoleate, 10 mM 2,2'-azo-bis(2,4-dimethyl valeronitrile), 37° C.; FIG. 8-10
Experimental: The N-oleoyl-carnosine, N-caprinoyl-carnosine and N-oleoyl-carnosine methyl ester obtained respectively in Examples 1, 3 and 4 were tested for antioxidizing power in terms of repression of the radical chain autoxidation reaction of methyl linoleate. Hexane/isopropyl alcohol (1:1 v/v) containing 100 mM of methyl linoleate, 10 mM of an oil-soluble generating agent (2,2'-azo-bis(2,4-dimethyl valeronitrile)), and various concentration of N-oleoyl-carnosine, N-caprinoyl-carnosine or N-oleoyl-carnosine methyl ester was kept incubated at 37° C., sampled at intervals along the course of time, and analyzed by high-performance liquid chromatography to follow changes in the amount of methyl linoleate hydroperoxide to be formed.

[2] = Repression of the radical chain autoxidizing reaction of a multilayer liposome (ferrous sulfate/ascorbic acid, TBA reaction); conditions: 10 μM compound in liposome, 0.1 mM ferrous sulfate, 1 mM ascorbic acid, pH 7.4, 37° C.; FIG. 11
Experimental: The N-oleoyl-carnosine and the N-oleoyl-histidine obtained respectively in Example 1 and Example 2 were tested for antioxidizing power in terms of the repression of the radical chain autoxidizing reaction of a multilayer liposome. A multilayer liposome was formed of 4 mM of egg yolk phosphatidylcholine, 0.4 mM of egg yolk phosphatidylcholine hydroperoxide,and 10 μM of N-oleoylcarnosine or N-oleoyl-histidine by the use of 10 mM trishydrochloric acid buffer solution (pH 7.4). The multilayer liposome and 0.1 mM of ferrous sulfate and 1 mM of ascorbic acid added thereto were incubated at 37° C., sampled at intervals along the course of time, subjected to the TBA reaction to induce coloration of malondialdehyde resulting from the hydrolysis of lipid peroxide, and analyzed by high-performance liquid chromatography to follow changes in the amount of the hydrolyzate.

[3] = Emulsifying power in soybean oil/phosphate buffer, turbidity of lower layer O.D. (500 nm); format: physicochemical; conditions: 0.2% in 50 mM phosphate buffer (pH 7), 30° C.; for Relative emulsifying activity (%): one half volume soybean oil, ultrasonic wave, relative to N-oleoyl-carnosine taken as 100; for emulsifying power (in words): oil-water system, soybean oil
Experimental: The N-oleoyl-carnosine and the N-oleoyl-histidine obtained respectively in Example 1 and Example 2 were tested for emulsifying power. The emulsifying power was determined by dissolving each N-acyl compound in a concentration of 0.2% in 50 mM of phosphate buffer solution (pH 7), combining the resultant solution with one half in volume of soybean oil, subjecting the resultant mixture to a treatment with ultrasonic wave at 30° C., allowing the treated mixture to stand at rest at 30° C. for a prescribed time, and measuring the turbidity of the lower layer consequently separated in the mixture in terms of O.D. (500 nm). […] The magnitudes of emulsifying power given in Table 1 represent relative numerical values of emulsifying power based on the emulsifying power of N-oleoyl-carnosine taken as 100.

Compound	antioxidizing power (formation of methyl linoleate hydroperoxide) [1]	antioxidizing power (malondialdehyde from lipid peroxide) [2]	Relative emulsifying activity (%) [3] [%]	emulsifying power (in words) [3]
CCCCCCCC/C=C\CCCCCCCC(=O)N[C@@H](Cc1c[nH]cn1)C(=O)N[C@@H](CC(C)C)C(=O)O [N-oleoyl histidylleucine] (Oleoyl-His-Leu-OH)	have antioxidizing powers	–	–	–
CCCCCCCCCC(=O)NCCC(=O)NC(Cc1cnc[nH]1)C(=O)O (centres unmarked) [N-caprinoyl-carnosine, N-Caprinoyl carnosine]	possessed of antioxidizing power	–	–	–
CCCCCCCC/C=C\CCCCCCCC(=O)N[C@@H](Cc1cnc[nH]1)C(=O)O [N-oleoyl-His]	have antioxidizing powers	possessed of antioxidizing power	82.1	possessed of outstanding emulsifying power
CCCCCCCCCC(=O)N[C@@H](Cc1c[nH]cn1)C(=O)O [N-caprinoyl histidine]	have antioxidizing powers	–	–	–
CCCCCCCC/C=C\CCCCCCCC(=O)NCCC(=O)N[C@@H](Cc1cnc[nH]1)C(=O)O [N-oleoyl-carnosine]	possessed of antioxidizing power	possessed of antioxidizing power	100	possessed of outstanding emulsifying power
CCCCCCCC/C=C\CCCCCCCC(=O)NCCC(=O)N[C@@H](Cc1cnc[nH]1)C(=O)OC [N-oleoyl-carnosine methyl ester, N-Oleoyl carnosine methyl ester]	possessed of antioxidizing power	–	–	–
Casein	–	–	24.3	–
CCCCCCCC/C=C\CCCCCCCC(=O)NCC(=O)NCC(=O)N[C@@H](Cc1c[nH]cn1)C(=O)O [N-oleoyl glycylglycylhistidine] (Oleoyl-Gly-Gly-His-OH)	have antioxidizing powers	–	–	–
